1 substance from patent US6693095B2, “Antibacterial substituted 7-acylamino-3-(methylhydrazono) methyl-cephalosporins and intermediates” (priority 1997, dated 2004) can be followed below.

The test system of this assay is multi-drug resistant Pneumococcus. As to the kind of experiment: Agar Dilution Test (NCCLS), MHK. In kind it is cell-based, Pneumococcus pneumoniae. Particulars: against multi-drug resistant Pneumococcus. An excerpt:
In particular, the active compounds of the invention show antimicrobial, e.g. antibacterial, activity against aerobic and anaerobic growing bacteria, e.g. gram negative and gram positive bacteria such as Enterobacter, e.g. Enterobacter cloacae; Enterococcus, e.g. Enterococcus faecalis, Enterococcus faecium; Moraxella, e.g. Moraxella catarrhalis; Haemophilus, e.g. Haemophilus influenza; Klebsiella, e.g. Klebsiella edwardsii, Klebsiella pneumoniae; Streptococcus, e.g. Streptococcus pyogenes; Staphylococcus, e.g. Staphylococcus aureus MSSA (methicillin sensitive strains); Staphylococcus aureus MRSA (methicillin resistant strains); Escherichia, e.g. Escherichia coli; Proteus, e.g. Proteus mirabilis, Salmonella, e.g. Salmonella typhimurium, Serratia, e.g. Serratia marcescens, Pseudomonas, e.g. Pseudomonas aeruginosa; Pneumococci, e.g. Pneumococcus pneumoniae (penicillin sensitive and mult-drug resistant strains); in vitro in the Agar DilutionTest for bacteria according to National Commitee for Clinical Laboratory Standards (NCCLS) 1993,
Document-M7-A3 Vol.13, No. 25: “Methods for dilution Antimicrobial Susceptibility Tests for Bacteria that Grow Aerobically-Third Edition, Approved Standard”; and
Document M11-A3 for anaerobic bacteria […]

In turn, “7-(((5-amino-1,2,4-thiadiazol-3-yl)-(Z)-(fluoromethoxyimino)acetyl)amino)-3-(imino-1-piperazinyhmethyl)medtylhydrazono)methyl-3-cephem4-carboxylic acid [Example 1]” returned an MHK of 0.4 µg/mL.
